According to patent publication US20240336608A1, “IL4I1 INHIBITORS AND METHODS OF USE” (Merck Sharp & Dohme LLC, priority 2023, published 2024):

Target: T1, recombinant IL4I1 (Homo sapiens, UniProt Q96RQ9)
T1 construct: purchased R&D Systems 5684-AO-020
T1 sequence (Q96RQ9 22-567): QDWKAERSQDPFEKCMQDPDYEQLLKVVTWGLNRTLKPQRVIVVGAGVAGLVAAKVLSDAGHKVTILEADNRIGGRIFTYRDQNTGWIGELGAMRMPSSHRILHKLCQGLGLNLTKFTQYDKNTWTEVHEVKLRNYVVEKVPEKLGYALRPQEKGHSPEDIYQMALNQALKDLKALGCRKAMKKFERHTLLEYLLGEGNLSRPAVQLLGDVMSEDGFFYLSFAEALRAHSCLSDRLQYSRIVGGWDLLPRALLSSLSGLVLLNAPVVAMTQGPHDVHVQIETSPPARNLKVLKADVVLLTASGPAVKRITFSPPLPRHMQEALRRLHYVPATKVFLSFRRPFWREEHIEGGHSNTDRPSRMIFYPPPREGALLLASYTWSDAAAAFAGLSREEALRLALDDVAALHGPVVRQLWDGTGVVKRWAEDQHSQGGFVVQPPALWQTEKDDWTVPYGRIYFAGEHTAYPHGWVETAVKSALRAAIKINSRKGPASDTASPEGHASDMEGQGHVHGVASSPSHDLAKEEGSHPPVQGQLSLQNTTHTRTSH
Test: IL4I1 Enzymatic Assay (Amplex Red/HRP coupled detection of H2O2, fluorescence)
Assay type: biochemical
Settings: 1 nM recombinant IL4I1; four-hour pre-incubation with compound; 1 mM each Phe, Tyr, Trp; ten-point titration
In short: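 Recombinant IL4I1 (1 nM final) pre-incubated 4 h at ambient temperature with compound (0.5% DMSO) in 50 mM Hepes pH 7.0, 0.005% Tween20; reaction started with 1 mM each Phe/Tyr/Trp plus excess Amplex Red/HRP, run 120 min. H2O2 read as resorufin fluorescence; EC50 from 10-point four-parameter fit.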

Going from `O=C(NCc1nnc(-c2ccccc2)s1)c1cn(C[C@H](F)CO)nn1` [Example 302, (S)-1-(2-fluoro-3-hydroxypropyl)-N-((5-phenyl-1,3,4-thiadiazol-2-yl)methyl)-1H-1,2,3-triazole-4-carboxamide] to `O=C(NCc1nnc(-c2ccccc2)s1)c1cn(CCF)nn1` [Example 80, 1-(2-fluoroethyl)-N-((5-phenyl-1,3,4-thiadiazol-2-yl)methyl)-1H-1,2,3-triazole-4-carboxamide], the EC50 falls from 5 nM to 2 nM (2.5-fold). The second is the more potent here.

First: O=C(NCc1nnc(-c2ccccc2)s1)c1cn(C2(CO)CC2)nn1 [Example 159, 1-(1-(hydroxymethyl)cyclopropyl)-N-((5-phenyl-1,3,4-thiadiazol-2-yl)methyl)-1H-1,2,3-triazole-4-carboxamide]
Second: O=C(NCc1nnc(-c2ccccc2)s1)c1cn([C@H]2C[C@@H](O)C2)nn1 [Example 282]
The EC50 of the first is 34-fold higher: 170 nM for the first, 5 nM for the second. The second is the more potent here.

Compared with `O=C(NCc1nnc(-c2ccccc2)s1)c1cc2n(n1)CCSC2` [Example 34, N-[(5-phenyl-1,3,4-thiadiazol-2-yl)methyl]-6,7-dihydro-4H-pyrazolo[5,1-c][1,4]thiazine-2-carboxamide], `O=C(NCc1nnc(-c2ccccc2)s1)c1cc2n(n1)CCC2` [Example 48, N-[(5-phenyl-1,3,4-thiadiazol-2-yl)methyl]-5,6-dihydro-4H-pyrrolo[1,2-b]pyrazole-2-carboxamide] is 1.9-fold lower in EC50: 453 nM for the first, 237 nM for the second.

Compared with `O=C(NCc1nnc(-c2ccccc2)s1)c1cn(CCC2CCCO2)nn1` (centres unmarked) [Example 207, N-((5-phenyl-1,3,4-thiadiazol-2-yl)methyl)-1-(2-(tetrahydrofuran-2-yl)ethyl)-1H-1,2,3-triazole-4-carboxamide], `CC(C)CCn1cc(C(=O)NCc2nnc(-c3ccccc3)s2)nn1` [Example 94, 1-isopentyl-N-((5-phenyl-1,3,4-thiadiazol-2-yl)methyl)-1H-1,2,3-triazole-4-carboxamide] is 4.8-fold lower in EC50: 327 nM for the first, 68 nM for the second.

`O=C(NCc1nnc(-c2ccccc2)s1)c1cn([C@H]2CO[C@H]3[C@@H]2OC[C@H]3O)nn1` [Example 5, 1-[(3S,3aR,6R,6aR)-6-hydroxy-2,3,3a,5,6,6a-hexahydrofuro[3,2-b]furan-3-yl]-N-[(5-phenyl-1,3,4-thiadiazol-2-yl)methyl]triazole-4-carboxamide] and `O=C(NCc1nnc(-c2ccccc2)s1)c1cn(C2CCCC(O)C2)nn1` (centres unmarked) [Example 206, 1-(3-hydroxycyclohexyl)-N-((5-phenyl-1,3,4-thiadiazol-2-yl)methyl)-1H-1,2,3-triazole-4-carboxamide] are within 1.5-fold of each other in EC50: 164 nM for the first, 226 nM for the second.

Going from `N#CCCCn1cc(C(=O)NCc2nnc(-c3ccccc3)s2)nn1` [Example 84, 1-(3-cyanopropyl)-N-((5-phenyl-1,3,4-thiadiazol-2-yl)methyl)-1H-1,2,3-triazole-4-carboxamide] to `COCCCn1cc(C(=O)NCc2nnc(-c3ccccc3)s2)nn1` [Example 96, 1-(3-methoxypropyl)-N-((5-phenyl-1,3,4-thiadiazol-2-yl)methyl)-1H-1,2,3-triazole-4-carboxamide], the EC50 falls from 52 nM to 16 nM (3.2-fold).

First: Cc1ccc(-n2cc(C(=O)NCc3nnc(-c4ccc(F)cc4Cl)s3)nn2)c(C)n1 [Example 111, N-((5-(2-chloro-4-fluorophenyl)-1,3,4-thiadiazol-2-yl)methyl)-1-(2,6-dimethylpyridin-3-yl)-1H-1,2,3-triazole-4-carboxamide]
Second: Cc1ccc(-n2cc(C(=O)NCc3cc(-c4ccccc4Cl)no3)nn2)c(C)n1 [Example 220, N-{[3-(2-chlorophenyl)-1,2-oxazol-5-yl]methyl}-1-(2,6-dimethylpyridin-3-yl)-1H-1,2,3-triazole-4-carboxamide]
The EC50 of the first is 3.7-fold higher: 727 nM for the first, 195 nM for the second. The second is the more potent here.

First: CC(C)(O)c1cc(C(=O)NCc2ccc(-c3ccccc3)nn2)on1 [Example 254, 3-(2-hydroxypropan-2-yl)-N-((6-phenylpyridazin-3-yl)methyl)isoxazole-5-carboxamide]
Second: Cc1cc(C(=O)NCc2nnc(-c3ccccc3)s2)on1 [Example 25, 3-methyl-N-[(5-phenyl-1,3,4-thiadiazol-2-yl)methyl]isoxazole-5-carboxamide]
The EC50 of the first is 13-fold higher: 995 nM for the first, 76 nM for the second. The second is the more potent here.

Going from `O=C1COC(Cn2cc(C(=O)NCc3nnc(-c4ccccc4)s3)nn2)CN1` (centres unmarked) [Example 192, 1-((5-oxomorpholin-2-yl)methyl)-N-((5-phenyl-1,3,4-thiadiazol-2-yl)methyl)-1H-1,2,3-triazole-4-carboxamide] to `NC(=O)C(F)(F)Cn1cc(C(=O)NCc2nnc(-c3ccccc3)s2)nn1` [Example 332, 1-(3-amino-2,2-difluoro-3-oxopropyl)-N-((5-phenyl-1,3,4-thiadiazol-2-yl)methyl)-1H-1,2,3-triazole-4-carboxamide], the EC50 falls from 264 nM to 8 nM (33-fold). The second is the more potent here.

`O=C(NCc1cc(-c2ccccc2)no1)c1cn(C2COC2)nn1` [Example 253, 1-(oxetan-3-yl)-N-((3-phenylisoxazol-5-yl)methyl)-1H-1,2,3-triazole-4-carboxamide] and `Cc1nc(C2COC2)ccc1-n1cc(C(=O)NCc2nnc(-c3ccccc3)s2)nn1` [Example 277, 1-(2-methyl-6-(oxetan-3-yl)pyridin-3-yl)-N-((5-phenyl-1,3,4-thiadiazol-2-yl)methyl)-1H-1,2,3-triazole-4-carboxamide] are within 1.5-fold of each other in EC50: 209 nM for the first, 179 nM for the second.

`O=C(NCc1nnc(-c2ccccc2)s1)c1cn([C@@H]2CC(=O)N(C3CC3)C2)nn1` [Example 182, (R)-1-(1-cyclopropyl-5-oxopyrrolidin-3-yl)-N-((5-phenyl-1,3,4-thiadiazol-2-yl)methyl)-1H-1,2,3-triazole-4-carboxamide] and `CC(NC(=O)c1cn(C2CC2)nn1)c1nnc(-c2ccccc2)s1` (single isomer, unassigned) [Example 244, 1-cyclopropyl-N-(1-(5-phenyl-1,3,4-thiadiazol-2-yl)ethyl)-1H-1,2,3-triazole-4-carboxamide] are within 1.5-fold of each other in EC50: 610 nM for the first, 587 nM for the second.

Going from `CC(C)c1cc(C(=O)NCc2nnc(-c3ccccc3)s2)no1` [Example 26, 5-isopropyl-N-[(5-phenyl-1,3,4-thiadiazol-2-yl)methyl]isoxazole-3-carboxamide] to `CC(O)c1cc(C(=O)NCc2nnc(-c3ccccc3)s2)no1` (centres unmarked) [Example 3, 5-(1-hydroxyethyl)-N-[(5-phenyl-1,3,4-thiadiazol-2-yl)methyl]isoxazole-3-carboxamide], the EC50 falls from 43 nM to 9 nM (4.8-fold). The second is the more potent here.

`O=C(NCc1nnc(-c2ccccc2)s1)c1cn(-c2cnccn2)nn1` [Example 311, N-((5-phenyl-1,3,4-thiadiazol-2-yl)methyl)-1-(pyrazin-2-yl)-1H-1,2,3-triazole-4-carboxamide] and `O=C(NCc1nnc(-c2ccccc2)s1)c1cn(-c2cncnc2)nn1` [Example 316, N-((5-phenyl-1,3,4-thiadiazol-2-yl)methyl)-1-(pyrimidin-5-yl)-1H-1,2,3-triazole-4-carboxamide] are within 1.5-fold of each other in EC50: 294 nM for the first, 241 nM for the second.

`Cc1ccc(-n2cc(C(=O)NCc3cc(-c4ccccc4)on3)nn2)c(C)n1` [Example 237, 1-(2,6-dimethylpyridin-3-yl)-N-((5-phenylisoxazol-3-yl)methyl)-1H-1,2,3-triazole-4-carboxamide] and `Cc1ccc(-n2cc(C(=O)NCc3nnc(-c4ccccc4)s3)nn2)c(Br)n1` [Example 279, 1-(2-bromo-6-methylpyridin-3-yl)-N-((5-phenyl-1,3,4-thiadiazol-2-yl)methyl)-1H-1,2,3-triazole-4-carboxamide] are within 1.5-fold of each other in EC50: 7 nM for the first, 8 nM for the second.

Compared with `Cc1cc(C(=O)NCc2nnc(-c3ccccc3)s2)c(C)n1C` [Example 50, 1,2,5-trimethyl-N-[(5-phenyl-1,3,4-thiadiazol-2-yl)methyl]pyrrole-3-carboxamide], `Cc1nc(C)c(-n2cc(C(=O)NCc3nnc(-c4ccccc4)s3)nn2)s1` [Example 212, 1-(2,4-dimethylthiazol-5-yl)-N-((5-phenyl-1,3,4-thiadiazol-2-yl)methyl)-1H-1,2,3-triazole-4-carboxamide] is 1.6-fold higher in EC50: 537 nM for the first, 882 nM for the second. The first is the more potent here.

Going from `CC(C(N)=O)n1cc(C(=O)NCc2nnc(-c3ccccc3)s2)nn1` (single isomer, unassigned) [Example 318, 1-(1-amino-1-oxopropan-2-yl)-N-((5-phenyl-1,3,4-thiadiazol-2-yl)methyl)-1H-1,2,3-triazole-4-carboxamide] to `O=C(NCc1nnc(-c2ccccc2)s1)c1cn(CC(F)(F)CO)nn1` [Example 176, 1-(2,2-difluoro-3-hydroxypropyl)-N-((5-phenyl-1,3,4-thiadiazol-2-yl)methyl)-1H-1,2,3-triazole-4-carboxamide], the EC50 falls from 209 nM to 7 nM (30-fold).

First: O=C(NCc1nnc(-c2ccncc2)s1)c1cn(CC(F)(F)F)nn1 [Example 249, N-((5-(pyridin-4-yl)-1,3,4-thiadiazol-2-yl)methyl)-1-(2,2,2-trifluoroethyl)-1H-1,2,3-triazole-4-carboxamide]
Second: Cn1cc(C(=O)NCc2nnc(-c3cncs3)s2)nn1 [Example 297, 1-methyl-N-((5-(thiazol-5-yl)-1,3,4-thiadiazol-2-yl)methyl)-1H-1,2,3-triazole-4-carboxamide]
The EC50 of the first is 5.3-fold lower: 15 nM for the first, 79 nM for the second.

`Cc1c(C(=O)NCc2nnc(-c3ccccc3)s2)oc2cccc(O)c12` [Example 20, 4-hydroxy-3-methyl-N-[(5-phenyl-1,3,4-thiadiazol-2-yl)methyl]benzofuran-2-carboxamide] was tested, and the EC50 was 340 nM.
